Experimental data published in patent publication US10100058B2, “Fused heterocyclic compounds as CaM kinase inhibitors” (Gilead Sciences, Inc., priority 2016, dated 2018).

What follows are compounds tested against recombinant CaMKIIδ (Homo sapiens (Human), UniProt Q13557) (assay: CaMKIIδ biochemical assay (HTRF)). Details: 10 pM CaMKIIδ, 110 nM calmodulin, 12 μM ATP, 1 hour; read-out: CAMKIID-HTRF-384V2 (IC50 - nM).
Experimental: CaMKIIδ Biochemical Assay
The biochemical activity of recombinant CaMKIIδ was measured by monitoring the phosphorylation of a target peptide using Homogenous Time Resolved Fluorescence (HTRF) technology from CisBio Bioassays.

SMILES | IC50
CCN(CC)[C@@H](C)CNC(=O)c1cc(-c2cnn3ccc(-c4cccs4)nc23)nc(N2CC[C@H]2c2nc(C)no2)c1 [Example 308, N—((S)-2-(diethylamino)propyl)-2-((S)-2-(3-methyl-1,2,4-oxadiazol-5-yl)azetidin-1-yl)-6-(5-(thiophen-2-yl)pyrazolo[1,5-a]pyrimidin-3-yl)isonicotinamide] | 0.71 nM
CCN(CC)[C@@H](C)CNC(=O)c1cc(NCCCOC)nc(-c2cnn3ccc(-c4cccs4)nc23)c1 [Example 218, (S)—N-(2-(diethylamino)propyl)-2-((3-methoxypropyl)amino)-6-(5-(thiophen-2-yl)pyrazolo[1,5-a]pyrimidin-3-yl)isonicotinamide] | 0.17 nM
CCN(CC)[C@@H](C)CNC(=O)c1cc(-c2cnn3ccc(-c4cccs4)nc23)nc(N2CC(NC)C2)c1 [Example 205, (S)—N-(2-(diethylamino)propyl)-2-(3-(methylamino)azetidin-1-yl)-6-(5-(thiophen-2-yl)pyrazolo[1,5-a]pyrimidin-3-yl)isonicotinamide] | 0.1 nM
CC(C)(O)CNc1cc(C(=O)N2CC3CCC(C2)NC3)cc(-c2cnn3ccc(-c4cccs4)nc23)n1 (stereo not shown) [Example 322, (-3,6-diazabicyclo[3.2.2]nonan-3-yl)(2-((2-hydroxy-2-methylpropyl)amino)-6-(5-(thiophen-2-yl)pyrazolo[1,5-a]pyrimidin-3-yl)pyridin-4-yl)methanone] | 5.01 nM
CCN(CC)[C@@H](C)CNC(=O)c1cc(-c2cnn3ccc(-c4cccs4)nc23)nc(N2CC[C@H]2C(=O)NCC#N)c1 [Example 300, 2-((S)-2-((cyanomethyl)carbamoyl)azetidin-1-yl)-N—((S)-2-(diethylamino)propyl)-6-(5-(thiophen-2-yl)pyrazolo[1,5-a]pyrimidin-3-yl)isonicotinamide] | 0.58 nM
CCN(CC)[C@@H](C)CNC(=O)c1cc(N[C@@H](C)CO)nc(-c2cnn3ccc(-c4cccs4)nc23)c1 [Example 200, N—((S)-2-(diethylamino)propyl)-2-(((S)-1-hydroxypropan-2-yl)amino)-6-(5-(thiophen-2-yl)pyrazolo[1,5-a]pyrimidin-3-yl)isonicotinamide] | 0.16 nM
CCN(CC)[C@@H](C)CNC(=O)c1cc(NCC2(N3CCCC3)COC2)nc(-c2cnn3ccc(-c4cccs4)nc23)c1 [Example 164, (S)—N-(2-(diethylamino)propyl)-2-(((3-(pyrrolidin-1-yl)oxetan-3-yl)methyl)amino)-6-(5-(thiophen-2-yl)pyrazolo[1,5-a]pyrimidin-3-yl)isonicotinamide] | 0.38 nM
CCN(CC)C(=O)[C@@H]1CCN1c1cc(C(=O)NC[C@H](C)N(CC)CC)cc(-c2cnn3ccc(-c4cccs4)nc23)n1 [Example 280, N—((S)-2-(diethylamino)propyl)-2-((S)-2-(diethylcarbamoyl)azetidin-1-yl)-6-(5-(thiophen-2-yl)pyrazolo[1,5-a]pyrimidin-3-yl)isonicotinamide] | 0.45 nM
CCN(CC)[C@@H](C)CNC(=O)c1cc(-c2cnn3ccc(-c4cccs4)nc23)ccn1 [Example 363, (S)—N-(2-(diethylamino)propyl)-4-(5-(thiophen-2-yl)pyrazolo[1,5-a]pyrimidin-3-yl)picolinamide] | 1.3 nM
CCN(CC)[C@@H](C)CNC(=O)c1cc(NCCC(C)(C)O)nc(-c2cnn3ccc(-c4cccs4)nc23)c1 [Example 221, (S)—N-(2-(diethylamino)propyl)-2-((3-hydroxy-3-methylbutyl)amino)-6-(5-(thiophen-2-yl)pyrazolo[1,5-a]pyrimidin-3-yl)isonicotinamide] | 0.13 nM
O=C(c1ccnc(-c2cnn3ccc(-c4cccs4)nc23)c1)N1CC2CCC(C1)NC2 (stereo not shown) [Example 76] | 3.47 nM
CCN(CC)[C@@H](C)CNC(=O)c1cc(-c2cnn3ccc(-c4cccs4)nc23)nc(N2CC(NS(=O)(=O)CC)C2)c1 [Example 182, (S)—N-(2-(diethylamino)propyl)-2-(3-(ethylsulfonamido)azetidin-1-yl)-6-(5-(thiophen-2-yl)pyrazolo[1,5-a]pyrimidin-3-yl)isonicotinamide] | 0.16 nM
CCN(CC)[C@@H](C)CNC(=O)c1cc(-c2cnn3ccc(-c4cccs4)nc23)nc(N2CC(NS(=O)(=O)C3CC3)C2)c1 [Example 154, (S)-2-(3-(cyclopropanesulfonamido)azetidin-1-yl)-N-(2-(diethylamino)propyl)-6-(5-(thiophen-2-yl)pyrazolo[1,5-a]pyrimidin-3-yl)isonicotinamide] | 0.28 nM
C[C@@H](NC(=O)c1ccnc(-c2cnn3ccc(-c4cccs4)nc23)c1)[C@@H]1CCCN1 [Example 13, N—((R)-1-((S)-pyrrolidin-2-yl)ethyl)-2-(5-(thiophen-2-yl)pyrazolo[1,5-a]pyrimidin-3-yl)isonicotinamide] | 153 nM
O=C(c1ccnc(-c2cnn3ccc(-c4cccs4)nc23)c1)N1C2CCNCC1CC2 (stereo not shown) [Example 82] | 6.14 nM
CCN(CC)CCNC(=O)c1cc(-c2cnn3ccc(-c4cccs4)nc23)nc(N2CC(C)(O)C2)c1 [Example 258, N-(2-(diethylamino)ethyl)-2-(3-hydroxy-3-methylazetidin-1-yl)-6-(5-(thiophen-2-yl)pyrazolo[1,5-a]pyrimidin-3-yl)isonicotinamide] | 1.07 nM
CCN(CC)[C@@H](C)CNC(=O)c1cc(-c2cnn3ccc(-c4cccs4)nc23)nc(N2CC[C@H]2C(=O)Nc2nccs2)c1 [Example 291, N—((S)-2-(diethylamino)propyl)-2-((S)-2-(thiazol-2-ylcarbamoyl)azetidin-1-yl)-6-(5-(thiophen-2-yl)pyrazolo[1,5-a]pyrimidin-3-yl)isonicotinamide] | 3.55 nM
C[C@@H](CNC(=O)c1ccnc(-c2cnn3ccc(-c4cccs4)nc23)c1)NCC1CC1 [Example 26, (S)—N-(2-((cyclopropylmethyl)amino)propyl)-2-(5-(thiophen-2-yl)pyrazolo[1,5-a]pyrimidin-3-yl)isonicotinamide] | 10.7 nM

Now from value to compound:

IC50 | SMILES
17.1 nM | CCN[C@@H](C)CNC(=O)c1cc(Cl)nc(-c2cnn3ccc(-c4ccccc4)nc23)c1 [Example 124, (S)-2-chloro-N-(2-(ethylamino)propyl)-6-(5-phenylpyrazolo[1,5-a]pyrimidin-3-yl)isonicotinamide]
0.87 nM | CNc1cnc(-c2cnn3ccc(-c4ccccc4)nc23)cc1C(=O)N1CCCC[C@@H]1CN [Example 139, (R)-(2-(aminomethyl)piperidin-1-yl)(5-(methylamino)-2-(5-phenylpyrazolo[1,5-a]pyrimidin-3-yl)pyridin-4-yl)methanone]
89.3 nM | O=C(NCC1CCCCN1)c1ccnc(-c2cnn3ccc(-c4cccs4)nc23)c1 (stereo not shown) [Example 19, N-(piperidin-2-ylmethyl)-2-(5-(thiophen-2-yl)pyrazolo[1,5-a]pyrimidin-3-yl)isonicotinamide]
15.7 nM | CCN[C@@H](C)CNC(=O)c1cc(N)nc(-c2cnn3ccc(-c4ccccc4)nc23)c1 [Example 121, (S)-2-amino-N-(2-(ethylamino)propyl)-6-(5-phenylpyrazolo[1,5-a]pyrimidin-3-yl)isonicotinamide]
6.97 nM | CCN(CC)[C@@H](C)CNC(=O)c1cc(-c2cnn3ccc(-c4ccncc4)nc23)nc(N2CC(OC)C2)c1 [Example 262, (S)—N-(2-(diethylamino)propyl)-2-(3-methoxyazetidin-1-yl)-6-(5-(pyridin-4-yl)pyrazolo[1,5-a]pyrimidin-3-yl)isonicotinamide]
303 nM | COc1cc(C(=O)N2CCCC[C@H]2CN)cc(-c2cnn3ccc(-c4ccccc4)nc23)n1 [Example 134, (S)-(2-(aminomethyl)piperidin-1-yl)(2-methoxy-6-(5-phenylpyrazolo[1,5-a]pyrimidin-3-yl)pyridin-4-yl)methanone]
0.56 nM | CCN(CC)[C@@H](C)CNC(=O)c1cc(NCCN(C)C)nc(-c2cnn3ccc(-c4ccccc4)nc23)c1 [Example 158, (S)—N-(2-(diethylamino)propyl)-2-((2-(dimethylamino)ethyl)amino)-6-(5-phenylpyrazolo[1,5-a]pyrimidin-3-yl)isonicotinamide]
23.7 nM | CCC(N)CNC(=O)c1ccnc(-c2cnn3ccc(-c4ccccc4)nc23)c1 (stereo not shown) [Example 46, N-(2-aminobutyl)-2-(5-phenylpyrazolo[1,5-a]pyrimidin-3-yl)isonicotinamide]
1.82 nM | NC[C@H]1CCCCN1C(=O)c1cc(-c2cnn3ccc(-c4ccccc4)nc23)ncc1Cl [Example 137, (R)-(2-(aminomethyl)piperidin-1-yl)(5-chloro-2-(5-phenylpyrazolo[1,5-a]pyrimidin-3-yl)pyridin-4-yl)methanone]
391 nM | C[C@@H](CNC(=O)c1ccnc(-c2cnn3ccc(-c4ccccc4)nc23)c1)NCc1ncccn1 [Example 49, (S)-2-(5-phenylpyrazolo[1,5-a]pyrimidin-3-yl)-N-(2-((pyrimidin-2-ylmethyl)amino)propyl) isonicotinamide]
6.05 nM | CCN(CC)[C@@H](C)CNC(=O)c1cc(-c2cnn3ccc(-c4cccs4)nc23)nc(N2CCC[C@@H]2C(N)=O)c1 [Example 269, 2-((R)-2-carbamoylpyrrolidin-1-yl)-N—((S)-2-(diethylamino)propyl)-6-(5-(thiophen-2-yl)pyrazolo[1,5-a]pyrimidin-3-yl)isonicotinamide]
5.29 nM | CN(C)c1cc(C(=O)N2CCCC[C@@H]2CN)cc(-c2cnn3ccc(-c4ccccc4)nc23)n1 [Example 118, (R)-(2-(aminomethyl)piperidin-1-yl)(2-(dimethylamino)-6-(5-phenylpyrazolo[1,5-a]pyrimidin-3-yl)pyridin-4-yl)methanone]
163 nM | NC[C@@H]1CCCCN1C(=O)c1cc(Cl)nc(-c2cnn3ccc(-c4ccccc4)nc23)c1 [Example 133, (S)-(2-(aminomethyl)piperidin-1-yl)(2-chloro-6-(5-phenylpyrazolo[1,5-a]pyrimidin-3-yl)pyridin-4-yl)methanone]
